Test system: Lewis Lung Carcinoma cells (LLC) transfected with OVA and MUC1
Assay: Staurosporine-induced apoptosis of transfected LLCs (PI / annexin V-FITC flow cytometry)
Format: cell-based
Conditions: transfected LLCs treated with Staurosporine vs untreated; FIG. 2
Description: Transfected LLCs were either left untreated (plot 22) or treated (plot 24) with Staurosporine, which induces apoptosis. Cells from both groups were stained with propidium iodide (PI) and annexin V-FITC and analyzed by flow cytometry.

With CN[C@@H]1C[C@H]2O[C@@](C)([C@@H]1OC)n1c3ccccc3c3c4c(c5c6ccccc6n2c5c31)C(=O)NC4 [Staurosporine] the “induction of apoptosis (annexin V-FITC positive cells)” value was “able to induce apoptosis”.

— patent US20080167268A1, “Particulate beta-glucan compositions for regulating dendritic cells” (priority 2006, published 2008)
